Common to all, as to assay: HDAC activity with fluorogenic lysyl substrates
Common to all, as to type: biochemical
Holding throughout (settings): 50 μM substrate

One test concerns the target T1, HDAC3 (Homo sapiens, UniProt O15379).
T1 construct: purchased ENZO Life Sciences BML-SE507
The method, then: (§1) The Ac-Lys(Succ.)-AMC substrate was tested for activity with recombinant preparations of human HDACs 1-11, SIRTs 1-4, 6 and 7, a complex of HDAC3 with a fragment of the activating protein NCOR1 and with HeLa nuclear extract, a rich source of active HDACs in their native multiprotein complexes.
(§2) Enzyme and extract catalog products obtained from ENZO Life Sciences included: HDAC1 (Cat. # BML-SE456), HDAC2 (Cat. # BML-SE500), HDAC3 (Cat. # BML-SE507), HDAC3/NCOR1 Complex (Cat. # BML-SE515), HDAC6 (Cat. # BML-SE508), HDAC8 (Cat. # BML-SE145), HDAC10 (Cat. # BML-SE559), HDAC11 (Cat. # BML-SE560), SIRT1 (Cat. # BML-SE239), SIRT2 (Cat. # BML-SE251), SIRT3 (Cat. # BML-SE270), SIRT5 (Cat. # BML-SE555), HeLa Nuclear Extract (Cat. # BML-KI140), Trypsin (“Fluor de Lys Developer”, 80 mg/ml bovine trypsin in 1 mM HCl, Cat. # BML-KI105 or “Fluor de Lys Developer II”, 80 mg/ml bovine trypsin in 1 mM HCl, Cat. # BML-KI176). […] Enzymes obtained from BPS Bioscience, San Diego, Calif. included: human recombinants SIRT4 (Cat. #50015), SIRT6 (Cat. #50017), SIRT7 (Cat. #50018). HeLa whole cell extract was obtained from HeLa S3 cells (American Type Culture Collection) grown in a medium of MEM/10% fetal bovine serum (FBS) as follows: 1) 9×10^6 cells were suspended by trypsinization, followed by a phosphate buffered saline (PBS) rinse and addition of MEM/10% FBS (1.5 mL) to eliminate trypsin before transfer to a 15 mL conical tube; 2) cells were sedimented by a low speed centrifugation, gently resuspended in PBS and sedimented again and supernatant removed; 3) lysis was induced by resuspension in 0.8 mL 50 mM Tris/HCl, pH 8.0 with the non-denaturing detergent NP-40 (0.5%), placement on ice and brief vortexing every 5 min. for 30 min.; 4) 100 μl of a concentrated salt solution in the same buffer was added in order to bring the final buffer composition to 50 mM Tris/C1, pH 8.0, 137 mM NaCl, 2.7 mM KCl, 1 mM MgCl2, 0.5% NP-40; 5) particulate matter was cleared by centrifugation and the cleared lysate supernatant transferred to a 1.5 mL Eppendorf tube and stored on ice until use in activity assays.
(§3) Assays were performed at 37° C., according to the manufacturer's instructions for the “SIRT1 Fluorometric Drug Discovery Kit” from Enzo Life Sciences (ELS) (Cat. # BML-AK555), with exceptions described as follows. Where indicated in figures and text, SIRT1 enzyme was replaced with another enzyme or extract and the “Fluor de Lys-SIRT1 Substrate” (Ac-Arg-His-Lys-Lys(Ac)-AMC; ELS Cat. # BML-KI-177) was replaced with another acetylated, succinylated or trifluoroacetylated substrate.

A further test has as its target T2, HDAC11 (Homo sapiens, UniProt Q96DB2).
T2 construct: purchased ENZO Life Sciences BML-SE560
T2 sequence (Q96DB2 1-347): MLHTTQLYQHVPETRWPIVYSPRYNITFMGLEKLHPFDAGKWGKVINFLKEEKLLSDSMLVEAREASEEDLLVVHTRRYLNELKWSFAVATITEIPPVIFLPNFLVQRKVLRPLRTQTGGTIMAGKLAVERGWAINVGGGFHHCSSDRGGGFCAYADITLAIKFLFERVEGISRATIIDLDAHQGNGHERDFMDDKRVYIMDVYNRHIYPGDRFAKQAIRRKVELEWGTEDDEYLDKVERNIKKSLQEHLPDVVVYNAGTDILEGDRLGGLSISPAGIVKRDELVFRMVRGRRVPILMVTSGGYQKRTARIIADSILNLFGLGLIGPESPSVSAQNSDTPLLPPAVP
How it is done:
as §1, §2, §3

The target of a further test is T3, HDAC10 (Homo sapiens, UniProt Q969S8).
T3 construct: purchased ENZO Life Sciences BML-SE559
T3 sequence (Q969S8 1-669): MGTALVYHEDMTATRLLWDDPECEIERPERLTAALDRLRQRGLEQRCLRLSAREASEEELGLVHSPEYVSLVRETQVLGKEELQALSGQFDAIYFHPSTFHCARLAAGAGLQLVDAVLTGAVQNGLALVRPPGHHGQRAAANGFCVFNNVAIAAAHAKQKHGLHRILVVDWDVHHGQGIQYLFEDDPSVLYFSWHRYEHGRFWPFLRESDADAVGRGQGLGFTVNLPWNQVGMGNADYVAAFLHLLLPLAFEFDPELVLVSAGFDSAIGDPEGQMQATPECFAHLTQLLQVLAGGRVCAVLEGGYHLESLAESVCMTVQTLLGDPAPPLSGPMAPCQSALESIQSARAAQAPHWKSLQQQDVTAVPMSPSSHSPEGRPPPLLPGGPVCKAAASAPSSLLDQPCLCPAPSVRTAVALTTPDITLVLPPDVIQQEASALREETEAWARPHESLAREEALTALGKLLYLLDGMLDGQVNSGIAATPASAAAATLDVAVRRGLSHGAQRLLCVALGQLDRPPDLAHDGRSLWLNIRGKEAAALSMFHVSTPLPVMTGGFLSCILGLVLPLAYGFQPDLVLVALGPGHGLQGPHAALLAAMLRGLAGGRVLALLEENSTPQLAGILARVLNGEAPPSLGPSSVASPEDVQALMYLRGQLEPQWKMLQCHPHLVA
The method, then:
as §1, §2, §3

The target in another test is T4, HDAC1 (Homo sapiens, UniProt Q13547).
T4 construct: purchased ENZO Life Sciences BML-SE456
The method, then:
as §1, §2, §3

A further test concerns the target T5, HDAC3/NCOR1 Complex (Homo sapiens, UniProt O15379).
T5 construct: purchased ENZO Life Sciences BML-SE515
The method, then: as §1, §2, §3

Values joined by “and” are separate entries in the source; they are usually repeats but may differ in a detail not shown here. Identical values can stand only once. *: point of attachment. AMC = Cc1cc(=O)oc2cc(N*)ccc12

T1 sequence (O15379 whole entry): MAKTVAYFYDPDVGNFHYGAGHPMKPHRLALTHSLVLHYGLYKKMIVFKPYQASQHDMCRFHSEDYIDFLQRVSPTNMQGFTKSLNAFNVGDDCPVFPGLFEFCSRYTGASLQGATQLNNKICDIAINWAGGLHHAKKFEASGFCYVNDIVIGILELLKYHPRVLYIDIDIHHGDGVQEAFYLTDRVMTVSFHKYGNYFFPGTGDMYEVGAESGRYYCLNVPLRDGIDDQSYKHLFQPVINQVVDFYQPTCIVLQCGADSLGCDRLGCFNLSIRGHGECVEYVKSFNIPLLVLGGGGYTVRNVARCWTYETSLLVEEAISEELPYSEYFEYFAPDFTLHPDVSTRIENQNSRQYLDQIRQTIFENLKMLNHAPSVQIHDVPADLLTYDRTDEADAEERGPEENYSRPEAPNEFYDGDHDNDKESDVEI
T5 sequence (O15379 whole entry): as above
T5 sequence (O75376 395-489 partner limits assumed): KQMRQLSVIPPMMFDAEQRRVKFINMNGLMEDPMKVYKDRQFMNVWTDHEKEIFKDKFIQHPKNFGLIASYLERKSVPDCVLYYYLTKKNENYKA
T4 sequence (Q13547 whole entry): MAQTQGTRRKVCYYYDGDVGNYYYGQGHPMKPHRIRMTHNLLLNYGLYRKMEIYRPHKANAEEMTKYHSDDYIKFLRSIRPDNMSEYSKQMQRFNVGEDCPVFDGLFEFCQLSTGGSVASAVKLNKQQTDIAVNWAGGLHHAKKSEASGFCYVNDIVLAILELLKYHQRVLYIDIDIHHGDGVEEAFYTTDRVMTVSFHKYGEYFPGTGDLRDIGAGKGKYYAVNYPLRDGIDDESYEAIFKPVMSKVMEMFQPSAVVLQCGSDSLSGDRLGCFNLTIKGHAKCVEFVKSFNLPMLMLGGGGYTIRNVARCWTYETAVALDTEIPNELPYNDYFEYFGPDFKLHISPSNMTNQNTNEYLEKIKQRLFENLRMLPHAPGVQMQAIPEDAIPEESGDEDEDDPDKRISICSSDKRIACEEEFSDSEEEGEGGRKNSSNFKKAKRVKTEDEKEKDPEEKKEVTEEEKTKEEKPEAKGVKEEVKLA

As for `CC(=O)NCCCCC(NC(C)=O)C(=O)Nc1ccc2c(C)cc(=O)oc2c1` (centres unmarked) [Ac-Lys(Ac.)-AMC, Ac-Lys(ε-acetyl)-AMC, reference compound], the “Activity” value at HDAC3 (listed as Ac-Lys(Acetyl)-AMC) is 3.8 pmol/min/µg and 3.80 pmol/min/µg; at HDAC11, 4.15 pmol/min/µg; at HDAC10, 1.21 pmol/min/µg; at HDAC1, 14.8 pmol/min/µg; on HDAC3/NCOR1 Complex it was 668 pmol/min/µg.
For the compound `CC(=O)N[C@@H](CCCCNC(=O)CCC(=O)O)C(=O)Nc1ccc2c(C)cc(=O)oc2c1` [Compound 1, N—(N^α-acetyl-L-Lysine(N^ε-succinyl))-AMC], the “Activity (pmol/min/μg)” value at HDAC3, at HDAC11, at HDAC10 and at HDAC1 was “Undetectable” each time. For the same compound, on HDAC3/NCOR1 Complex, the “Activity” value came out at 0.40 pmol/min/µg.
For the compound `CCCCCCCCCCCCCC(=O)NCCCC[C@H](NC(C)=O)C(=O)Nc1ccc2c(C)cc(=O)oc2c1` [Compound 4, N—(N^α-acetyl-L-Lysine(N^ε-myristoyl))-AMC], the “Activity” value at HDAC3 is 0.963 pmol/min/µg; on HDAC1, 1.651 pmol/min/µg; on HDAC3/NCOR1 Complex, 79.023 pmol/min/µg.
For `COC(=O)CCC(=O)NCCCC[C@H](NC(C)=O)C(=O)Nc1ccc2c(C)cc(=O)oc2c1` [Compound 5, N—(N^α-acetyl-L-Lysine(N^ε-methyl succinyl))-AMC], the results for the “Activity” value at HDAC3, at HDAC1 and at HDAC3/NCOR1 Complex were 0.431 pmol/min/µg, 0.798 pmol/min/µg and 53.750 pmol/min/µg, respectively.
Take “Ac-Arg-His-Lys-Lys(ε-acetyl)-AMC (Ac-RHKK(Ac)-{AMC}; SMILES CC(=O)NCCCC[C@H](NC(=O)[C@H](CCCCN)NC(=O)[C@H](Cc1c[nH]cn1)NC(=O)[C@H](CCCNC(=N)N)NC(C)=O)C(=O)Nc1ccc2c(C)cc(=O)oc2c1) [Ac-RHKK(Ac)-AMC, p53 peptide fluorogenic deacetylase substrate, Cat. # BML-KI177, reference compound]”: the “Activity (pmol/min/μg)” value with HDAC11 was “Ac-RHKK(Ac)-AMC/6.09 pmol/min/μg”; with HDAC10, “Ac-RHKK(Ac)-AMC/2.72 pmol/min/μg”; with HDAC1 it was “Ac-RHKK(Ac)-AMC/21 pmol/min/μg”; with HDAC3/NCOR1 Complex, “Ac-RHKK(Ac)-AMC/687 pmol/min/μg”.

The values are drawn from patent US10920265B2, “Compounds and methods for detection of enzymes that remove methyl succinyl groups from epsilon-amino lysine moieties” (Enzo Life Sciences, Inc., priority 2011, dated 2021).
